Results on eleven compounds are retold here after ChEMBL document CHEMBL3400093, “Synthesis and biological evaluation of novel tyrosyl-DNA phosphodiesterase 1 inhibitors with a benzopentathiepine moiety” (Bioorg Med Chem, 2015).

Experiment [1] addresses Tyrosyl-DNA phosphodiesterase 1 (Homo sapiens, UniProt Q9NUW8). The experiment is described as follows: Inhibition of recombinant TDP1 (unknown origin) assessed as increase in fluorescence.
For experiment [2], the system named is MCF7. The experiment is described as follows: Cytotoxicity against human MCF7 cells assessed as reduction In cell number after 72 hrs by MTT assay. The class given is functional. Conditions: MCF7, 72 h. A general note: Formazan colour is commonly taken as a measure of viable cells.
Experiment [3] deals with HepG2. Put plainly: Cytotoxicity against human HepG2 cells assessed as reduction In cell number after 72 hrs by MTT assay. The class given is functional. To be noted: HepG2, 72 h.
Experiment [4] concerns MCF7. The experiment is described as follows: Induction of apoptosis in human MCF7 cells assessed as apoptotic DNA fragments at 100 uM after 72 hrs by DNA gel electrophoresis assay. The class given is functional, cell-based.
In experiment [5] the test system is MCF7. Put plainly: Induction of apoptosis in human MCF7 cells assessed as P1 population at 200 uM after 24 hrs by annexin V-FITC/propidium iodide staining-based FACS flow cytometric analysis relative to control. The class given is functional. (In flow cytometry, cells or beads pass a laser one at a time.)
Experiment [6] relates to MCF7. The experiment is described as follows: Induction of apoptosis in human MCF7 cells assessed as P1 population at 200 uM after 48 hrs by annexin V-FITC/propidium iodide staining-based FACS flow cytometric analysis relative to control. In kind it is functional.
Experiment [7] deals with MCF7. The experiment is described as follows: Cytotoxicity against human MCF7 cells assessed as condensation of nuclei, shrinkage of the cytoplasm, convolution of outlines, budding and formation of apoptotic bodies at 40 uM after 24 hrs by light microscopy. The class given is functional, cell-based.
The subject of experiment [8] is MCF7. The experiment is described as follows: Cytotoxicity against human MCF7 cells assessed as condensation of nuclei, shrinkage of the cytoplasm, convolution of outlines, budding and formation of apoptotic bodies at 200 uM after 24 hrs by light microscopy. In kind it is functional, cell-based.
The subject of experiment [9] is HepG2. Put plainly: Cytotoxicity against human HepG2 cells assessed as condensation of nuclei, shrinkage of the cytoplasm, convolution of outlines, budding and formation of apoptotic bodies at 40 uM after 24 hrs by light microscopy. In kind it is functional, cell-based.
Experiment [10] deals with HepG2. Put plainly: Cytotoxicity against human HepG2 cells assessed as condensation of nuclei, shrinkage of the cytoplasm, convolution of outlines, budding and formation of apoptotic bodies at 200 uM after 24 hrs by light microscopy. In kind it is functional, cell-based.
Experiment [11] concerns MCF7. The experiment is described as follows: Induction of apoptosis in human MCF7 cells assessed as P1 population at 100 uM after 24 hrs by annexin V-FITC/propidium iodide staining-based FACS flow cytometric analysis relative to control. In kind it is functional.
Experiment [12] relates to MCF7. Put plainly: Induction of apoptosis in human MCF7 cells assessed as P1 population at 100 uM after 48 hrs by annexin V-FITC/propidium iodide staining-based FACS flow cytometric analysis relative to control. The class given is functional.
Experiment [13] deals with MCF7. The experiment is described as follows: Induction of apoptosis in human MCF7 cells assessed as P2 population at 100 uM after 48 hrs by annexin V-FITC/propidium iodide staining-based FACS flow cytometric analysis (reference value: 13.5%). In kind it is functional.
Experiment [14] relates to MCF7. The experiment is described as follows: Induction of apoptosis in human MCF7 cells assessed as P2 population at 200 uM after 48 hrs by annexin V-FITC/propidium iodide staining-based FACS flow cytometric analysis (reference value: 13.5%). The class given is functional.

SMILES strings stand for the structures. Activity calls are given as the source filed them. The rule behind the calls is not given here. Where only a bound is given, the exact number is not on record here.

Tyrosyl-DNA phosphodiesterase 1, sequence (Q9NUW8 whole entry): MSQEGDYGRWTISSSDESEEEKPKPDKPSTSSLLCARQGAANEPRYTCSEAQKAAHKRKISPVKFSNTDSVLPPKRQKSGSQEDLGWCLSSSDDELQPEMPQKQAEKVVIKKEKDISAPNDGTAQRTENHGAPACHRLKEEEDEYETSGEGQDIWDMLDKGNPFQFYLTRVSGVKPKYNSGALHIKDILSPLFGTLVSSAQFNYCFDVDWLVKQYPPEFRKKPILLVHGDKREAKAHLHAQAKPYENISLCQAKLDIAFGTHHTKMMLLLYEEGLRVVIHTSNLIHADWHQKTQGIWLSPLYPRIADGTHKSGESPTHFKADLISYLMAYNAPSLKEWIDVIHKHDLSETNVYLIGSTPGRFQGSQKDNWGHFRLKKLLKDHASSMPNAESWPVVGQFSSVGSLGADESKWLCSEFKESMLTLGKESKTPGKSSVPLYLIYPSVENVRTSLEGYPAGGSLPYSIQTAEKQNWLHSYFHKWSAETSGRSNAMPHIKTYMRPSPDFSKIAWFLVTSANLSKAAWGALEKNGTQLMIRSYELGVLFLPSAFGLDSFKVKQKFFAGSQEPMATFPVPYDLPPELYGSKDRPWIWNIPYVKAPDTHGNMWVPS

In general, IC50 refers to the concentration that gives 50% inhibition. Regarding `O=C(CCN1CCOCC1)Nc1cc(C(F)(F)F)cc2c1SSSSS2`, the IC50 in experiment [1] stood at 1.3 µM.

As a reminder, the CC50 is the concentration giving 50% cytotoxicity. As to `CCCCN(CCCC)CC(=O)Nc1cc(C(F)(F)F)cc2c1SSSSS2`, in [1], the IC50 amounted to 0.22 µM. Moreover, the CC50 in the experiment on MCF7 [2] was 28.1 µM; with HepG2 [3], > 100 µM. For the same compound, the result in the experiment on MCF7 [4] was Active. The values for the Activity in the experiment on MCF7 [5] and in the experiment with MCF7 [6] were 1.51% and 10.5%, respectively.

Regarding `O=C(CN1CCCC1)Nc1ccccc1`, in [1], the IC50 was > 10 µM.

For the compound `O=C(CCN1CCCCC1)Nc1cc(C(F)(F)F)cc2c1SSSSS2`, the IC50 in experiment [1] came out at 3.66 µM.

`O=C(CN1CCCC1)Nc1cc(C(F)(F)F)cc2c1SSSSS2`: the IC50 in experiment [1] turned out to be 3.7 µM.

Regarding `O=C(Nc1cc(C(F)(F)F)cc2c1SSSSS2)C(F)(F)F`, the IC50 in [1] was > 10 µM. Also, the CC50 with MCF7 [2] was determined as 21 µM. Also, the inhibition result in the experiment on MCF7 [7], in the experiment on MCF7 [8], in the experiment with HepG2 [9] and in the experiment with HepG2 [10] was “Active” in each case. Further, in the experiment on MCF7 [4], the result was Active. For the same compound, the Activity in the experiment with MCF7 [11] is 1.2%; in the experiment with MCF7 [5], 8.3%; in the experiment with MCF7 [12], 9.5%; in the experiment on MCF7 [6], 20.1%; in the experiment on MCF7 [13], 23%; in the experiment with MCF7 [14], 33.6%.

`O=C(CCN1CCCC1)Nc1cc(C(F)(F)F)cc2c1SSSSS2`: the IC50 in [1] amounted to 6.03 µM.

Regarding `O=C(CN1CCCCC1)Nc1ccccc1`, in [1], the IC50 was > 10 µM.

As for `O=C(CN1CCOCC1)Nc1cc(C(F)(F)F)cc2c1SSSSS2`, the IC50 in experiment [1] was determined as 1.62 µM.

As for `Nc1cc(C(F)(F)F)cc2c1SSSSS2`, the IC50 in experiment [1] is > 10 µM. For the same compound, the CC50 is 14 µM with MCF7 [2] and 26.6 µM in the experiment on HepG2 [3]. Moreover, the result with MCF7 [4] was Active. Also, the Activity in the experiment with MCF7 [11] is given as 0%; in the experiment with MCF7 [5] it was 0%; in the experiment on MCF7 [6] it was 0.8%.

Turning to `O=C(CN1CCCCC1)Nc1cc(C(F)(F)F)cc2c1SSSSS2`, the IC50 in experiment [1] is 1.28 µM. The values for the CC50 with MCF7 [2] and with HepG2 [3] were 19.3 µM and 24.4 µM, respectively. Also, in the experiment on MCF7 [4], the result was Active. Moreover, the Activity with MCF7 [11] was determined as 0%; with MCF7 [5] it was 0%; in the experiment on MCF7 [6] it was 0.9%.
